Reference: US20160136229A1, “MATERIALS FOR POSITIVE CATHEPSIN B MODULATION AND METHODS OF USE FOR TREATING MILD COGNITIVE IMPAIRMENT (MCI), EARLY DEMENTIA, A-SYNUCLEINOPATHY, TRAUMATIC BRAIN INJURY, CARDIOMYOPATHY, EYE DISEASE AND SKIN DAMAGE” (University of North Carolina at Pembroke, priority 2013, published 2016)

Legend:
[1] = target: T1, 30-kDa active form of cathepsin B (Rattus norvegicus, UniProt P00787); experiment: Active cathepsin B immunoblot in brain, eye and skin after oral dosing in rats; type: in vivo
T1 construct: assessed by immunoblot to label the 30-kDa active form of cathepsin B; from tissue; host or cells: Fischer rat brain regions (A5); rat brain regions, eye and skin after oral dosing (A18); rat organotypic heart slice cultures (A17)
T1 sequence (P00787 80-333 limits assumed): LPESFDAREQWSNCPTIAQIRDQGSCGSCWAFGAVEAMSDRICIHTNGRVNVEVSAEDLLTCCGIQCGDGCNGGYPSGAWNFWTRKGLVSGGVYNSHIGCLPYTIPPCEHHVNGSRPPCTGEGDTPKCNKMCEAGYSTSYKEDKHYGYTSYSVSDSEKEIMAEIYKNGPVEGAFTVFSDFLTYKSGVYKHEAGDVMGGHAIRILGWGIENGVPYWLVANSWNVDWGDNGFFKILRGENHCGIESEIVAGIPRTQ
Method: FIG. 10. The modulatory compound PADK up-regulates active cathepsin B in brain, eyes, and skin after oral dosing in rats. […] Four different brain regions were dissected and homogenates prepared, and equal protein aliquots were assessed by immunoblot to label the 30-kDa active form of cathepsin B (FC=frontal cortex).

[2] = system: APP-αCTF and APP-βCTF; experiment: Clearance of APP carboxyterminal fragments in APP mouse model; type: in vivo; conditions: PADK-treated transgenic mice, 20-22 months; correlated with augmented active CatB
Method: FIG. 4. Enhancing lysosome efficiency with the cathepsin B modulator PADK leads to reductions of multiple types of proteinopathy-related accumulation events. […] Age-matched wild-type mice (wt) and 9-10-month mutant human APP mice, a model of early dementia, treated with or without PADK were assessed for the 4-kDa Δβ peptide, the active form of cathepsin B (act CB), and other proteins in hippocampal samples (C). Similar treatment groups used another APP mouse model at 20-22 months of age to measure clearance of APP carboxyterminal fragments APP-αCTF and APP-βCTF (D). Rat hippocampal slice cultures from the untreated control group (con) and slices treated with submicromolar Δβ42 (early tauopathy model) in the absence or presence of PADK (5 μM for 4 days) were assessed for phosphorylated tau (pTau) and other proteins (E). For a model of early α-synucleinopathy, human A53T α-synuclein transgenic mice, at 7 months old, were studied with or without PADK treatment and assessed for human α-synuclein (α-syn) in TX-100 extracts of hippocampus and for other proteins in hippocampal homogenates (F). Plotted data (±SEM) were compared to neighboring vehicle groups by unpaired t-tests: *p=0.02, **p<0.01, ***p<0.001. APPswind and APP-PS1 mice are described in Butler et al., (2011), the entire content of which is hereby incorporated herein by reference. […]

[3] = target: T2, active cathepsin B (Mus musculus, UniProt P10605); experiment: Active cathepsin B staining in PADK-treated mice; type: in vivo; conditions: 18 mg/kg/d×9 days, ip, vs vehicle
T2 construct: from tissue; host or cells: brain and CNS regions of mice (PADK-treated mice, A53T transgenic and wild-type mice, C57BL/6 mice)
T2 sequence (P10605 80-333 limits assumed): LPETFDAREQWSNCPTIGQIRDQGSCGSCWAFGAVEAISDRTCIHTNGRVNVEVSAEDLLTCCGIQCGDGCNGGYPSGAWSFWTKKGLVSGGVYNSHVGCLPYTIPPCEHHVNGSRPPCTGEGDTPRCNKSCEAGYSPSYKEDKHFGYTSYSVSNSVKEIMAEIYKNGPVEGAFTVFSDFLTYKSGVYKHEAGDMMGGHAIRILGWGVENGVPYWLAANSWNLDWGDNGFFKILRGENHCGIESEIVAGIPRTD
Method: FIG. 4. Enhancing lysosome efficiency with the cathepsin B modulator PADK leads to reductions of multiple types of proteinopathy-related accumulation events. […] Age-matched wild-type mice (wt) and 9-10-month mutant human APP mice, a model of early dementia, treated with or without PADK were assessed for the 4-kDa Δβ peptide, the active form of cathepsin B (act CB), and other proteins in hippocampal samples (C). Similar treatment groups used another APP mouse model at 20-22 months of age to measure clearance of APP carboxyterminal fragments APP-αCTF and APP-βCTF (D). Rat hippocampal slice cultures from the untreated control group (con) and slices treated with submicromolar Δβ42 (early tauopathy model) in the absence or presence of PADK (5 μM for 4 days) were assessed for phosphorylated tau (pTau) and other proteins (E). For a model of early α-synucleinopathy, human A53T α-synuclein transgenic mice, at 7 months old, were studied with or without PADK treatment and assessed for human α-synuclein (α-syn) in TX-100 extracts of hippocampus and for other proteins in hippocampal homogenates (F). Plotted data (±SEM) were compared to neighboring vehicle groups by unpaired t-tests: *p=0.02, **p<0.01, ***p<0.001. APPswind and APP-PS1 mice are described in Butler et al., (2011), the entire content of which is hereby incorporated herein by reference.

[4] = target: T1, 30-kDa active form of cathepsin B; experiment: Immunoblot of active cathepsin B in brain region homogenates of Fischer rats; type: in vivo; conditions: hippocampal and neocortical homogenates; 27 mg/kg daily, 9 days of injections
Method: (§1) FIG. 3. Lysosomal modulator PADK dramatically up-regulates active cathepsin B levels in middle-aged Fischer rats, a model of MCI. The female rats were injected daily with vehicle (veh) or 27 mg/kg PADK for 9 days. Brain regions were dissected, homogenates prepared, and equal protein aliquots were assessed by immunoblot to label the 30-kDa active form of cathepsin B as well as actin load controls (A). The hippocampal homogenate samples were also stained for the postsynaptic marker GluR1 to assess for synaptic recovery in correspondence to cathepsin B regulation (A, lower blots).
(§2) Brains were removed from the Fischer rats after the behavior studies in order to assess cathepsin B and synaptic marker levels. […] Cathepsin B immunoreactivity was increased 4- to 8-fold in hippocampal as well as neocortical homogenates, while non-lysosomal proteins remained unchanged (gel load controls). In addition to the correspondence with improved memory, there is evidence that the lysosomal modulation corresponds with synaptic recovery, assessing the postsynaptic marker GluR1 in hippocampus (FIG. 3A lower blots, and FIG. 3C). Without wishing to be bound by any scientific theory, the results support the hypothesis that lysosomal enhancement offsets the age-related cascade of microtubule destabilization, transport failure, synaptic decline, and cognitive impairment. […]

[5] = system: GluR1; experiment: Immunoblot of postsynaptic marker GluR1 in hippocampal homogenates of Fischer rats; type: in vivo, rat; conditions: 27 mg/kg daily for 9 days; vs vehicle, p=0.0386
Method: as §1, §2

[6] = system: Aβ1-42 peptide; conditions: cited from earlier work
[7] = system: mutant colonies; experiment: Ames test of genetic toxicity; type: cell-based; conditions: in contrast to a mutagen tested in parallel
[8] = oral, peanut butter mixture, 15 mg/kg twice a day, 10 days

C[C@H](NC(=O)[C@H](Cc1ccccc1)NC(=O)OCc1ccccc1)C(=O)C=[N+]=[N-] [PADK, N-carbobenzyloxy-L-phenylalanyl-L-alanyl-diazomethylketone]
BBB crossing after oral dosing ([1]; inferred from enhanced active cathepsin B in brain regions after 10 days of 15 mg PADK/kg/0.5 day): crossing the BBB | active cathepsin B in brain [1, 8]: up-regulate | active cathepsin B in eye tissue [1, 8]: significant increases | active cathepsin B in skin tissue [1, 8]: significant increases | APP carboxy-terminal fragments (αCTF and βCTF) [2]: reductions | levels of active cathepsin B [3]: increased levels of active cathepsin B | Cathepsin B immunoreactivity increase [4]: 4- to 8 fold | GluR1 levels in hippocampus [5]: increased | extracellular Aβ deposits ([6]; AD mouse models): significantly reduced | truncated Aβ38 ([6]; AD transgenic mice): increase | synaptic integrity and cognitive ability ([6]; AD transgenic mouse models): improved | intracellular Aβ1-42 peptide in the hippocampus and other brain regions ([6]; two different transgenic mouse models of AD): reduced | active form of cathepsin B ([6]; two mouse models of AD): markedly up-regulated | mutant colonies in the Ames test [7]: did not produce mutant colonies
